According to patent US6737383B1, “Herbicidal oxadiazolidines” (priority 1999, dated 2004):

Experiments:
field violet [1] = assay: Test E field violet; type: in vivo, Viola arvensis; details: Postemergence
Experimental: (§1) Compounds evaluated in this test were formulated in a non-phytotoxic solvent mixture which included a surfactant and applied to plants that were in the 1- to 4-leaf stage (postemergence application). A mixture of sandy loam soil and greenhouse potting mix in a 60:40 ratio was used for the postemergence test.
(§2) Plantings of these crops and weed species were adjusted to produce plants of appropriate size for the postemergence test. All plant species were grown using normal greenhouse practices. Crop and weed species include annual bluegrass (Poa annua), blackgrass (Alopecurus myosuroides), black nightshade (Solanum nigra), chickweed (Stellaria media), common poppy (Papaver rhoeas), deadnettle (Lamium amplexicaule), downy brome (Bromus tectorum), field violet (Viola arvensis), galium (Galium aparine), green foxtail (Setaria viridis), Italian ryegrass (Lolium multiflorum), jointed goatgrass (Aegilops cylindrica), kochia (Kochia scoparia), lambsquarters (Chenopodium album), littleseed canarygrass (Phalaris minor), rape (Brassica napus), redroot pigweed (Amaranthus retroflexus), Russian thistle (Salsola kali), scentless chamomile (Matricaria inodora), spring barley (Hordeum vulgare), sugar beet (Beta vulgaris), sunflower (Helianthus annuus), ivyleaf speedwell (Veronica hederaefolia), spring wheat (Triticum aestivum), winter wheat (Triticum aestivum), wild buckwheat (Polygonum convolvulus), wild mustard (Sinapis arvensis), wild oat (Avena fatua), windgrass (Apera spica-venti) and winter barley (Hordeum vulgare).
(§3) Treated plants and untreated controls were maintained in a greenhouse for approximately 21 to 28 days, after which all treated plants were compared to untreated controls and visually evaluated. […] A dash response (-) means no test result.

galium [2] = assay: Test E galium; type: in vivo, Galium aparine; details: Postemergence
In short: (§4)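 Visual evaluation versus untreated controls after about 21 to 28 days in the greenhouse. Compound was in a surfactant-containing non-phytotoxic solvent; postemergence plants were treated at the 1- to 4-leaf stage, grown in a 60:40 sandy loam and potting mix blend.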

Italian ryegrass = assay: Test E Italian ryegrass; type: in vivo, Lolium multiflorum; details: Postemergence
Experimental: as §1, §2, §3

kochia [3] = assay: Test E kochia; type: in vivo, Kochia scoparia; details: Postemergence
Experimental: as §1, §2, §3

rape [4] = assay: Test E rape; type: in vivo, Brassica napus; details: Postemergence
Experimental: […] A mixture of sandy loam soil and greenhouse potting mix in a 60:40 ratio was used for the postemergence test.
as §2, §3

spring barley [5] = assay: Test E spring barley; type: in vivo, Hordeum vulgare; details: Postemergence
Experimental: as §1, §2, §3

sugar beet = assay: Test E sugar beet; type: in vivo, Beta vulgaris; details: Postemergence
In short: as §4

spring wheat = assay: Test E spring wheat; type: in vivo, Triticum aestivum; details: Postemergence
Experimental: as §1, §2, §3

wild mustard [6] = assay: Test E wild mustard; type: in vivo, Sinapis arvensis; details: Postemergence
In short: as §4

wild oat = assay: Test E wild oat; type: in vivo, Avena fatua; details: Postemergence
Experimental: as §1, §2, §3

black nightshade = assay: Test E black nightshade; type: in vivo, Solanum nigra; details: Preemergence
deadnettle = assay: Test E deadnettle; type: in vivo, Lamium amplexicaule; details: Preemergence
downy brome = assay: Test E downy brome; type: in vivo, Bromus tectorum; details: Preemergence
field violet [7] = assay: Test E field violet; type: in vivo, Viola arvensis; details: Preemergence
galium [8] = assay: Test E galium; type: in vivo, Galium aparine; details: Preemergence
jointed goatgrass = assay: Test E jointed goatgrass; type: in vivo, Aegilops cylindrica; details: Preemergence
kochia [9] = assay: Test E kochia; type: in vivo, Kochia scoparia; details: Preemergence
lambsquarters = assay: Test E lambsquarters; type: in vivo, Chenopodium album; details: Preemergence
littleseed canarygrass = assay: Test E littleseed canarygrass; type: in vivo, Phalaris minor; details: Preemergence
rape [10] = assay: Test E rape; type: in vivo, Brassica napus; details: Preemergence
redroot pigweed = assay: Test E redroot pigweed; type: in vivo, Amaranthus retroflexus; details: Preemergence
Russian thistle = assay: Test E Russian thistle; type: in vivo, Salsola kali; details: Preemergence
spring barley [11] = assay: Test E spring barley; type: in vivo, Hordeum vulgare; details: Preemergence
sunflower = assay: Test E sunflower; type: in vivo, Helianthus annuus; details: Preemergence
wild mustard [12] = assay: Test E wild mustard; type: in vivo, Sinapis arvensis; details: Preemergence
windgrass = assay: Test E windgrass; type: in vivo, Apera spica-venti; details: Preemergence
[13] = Rate 250 g/ha, 0 to 100 scale (0 no effect, 100 complete control)
[14] = Rate 62 g/ha, 0 to 100 scale, 0 no effect, 100 complete control
[15] = Rate 125 g/ha, 0 to 100 scale (0 no effect, 100 complete control)

What does the source list for `CCn1c(=O)on(C(=O)N(c2ccc(Cl)cc2)C(C)C)c1=O` [Compound 108]?
Plant response rating, Field violet (field violet [1]; Rate 62 g/ha, 0 to 100 scale): 0; Plant response rating, Field violet (field violet [1]; Rate 125 g/ha, 0 to 100 scale): 0; Plant response rating, Field violet (field violet [1]; [13]): 20; Plant response rating, Galium (galium [2]; Rate 62 g/ha, 0 to 100 scale): 0; Plant response rating, Galium (galium [2]; Rate 125 g/ha, 0 to 100 scale): 10; Plant response rating, Galium (galium [2]; [13]): 50; Plant response rating, I. Ryegrass (Italian ryegrass; Rate 62 g/ha, 0 to 100 scale): 20; Plant response rating, I. Ryegrass (Italian ryegrass; Rate 125 g/ha, 0 to 100 scale): 5; Plant response rating, I. Ryegrass (Italian ryegrass; [13]): 40; Plant response rating, Kochia (kochia [3]; Rate 62 g/ha, 0 to 100 scale): 20; Plant response rating, Kochia (kochia [3]; Rate 125 g/ha, 0 to 100 scale): 40; Plant response rating, Kochia (kochia [3]; [13]): 30; Plant response rating, Rape (rape [4]; Rate 62 g/ha, 0 to 100 scale): 60; Plant response rating, Rape (rape [4]; Rate 125 g/ha, 0 to 100 scale): 40; Plant response rating, Rape (rape [4]; [13]): 50; Plant response rating, Spring Barley (spring barley [5]; Rate 62 g/ha, 0 to 100 scale): 10; Plant response rating, Spring Barley (spring barley [5]; Rate 125 g/ha, 0 to 100 scale): 20; Plant response rating, Spring Barley (spring barley [5]; [13]): 25; Plant response rating, Sugar beet (sugar beet; Rate 62 g/ha, 0 to 100 scale): 5; Plant response rating, Sugar beet (sugar beet; Rate 125 g/ha, 0 to 100 scale): 10; Plant response rating, Sugar beet (sugar beet; [13]): 20; Plant response rating, Spring Wheat (spring wheat; Rate 62 g/ha, 0 to 100 scale): 10; Plant response rating, Spring Wheat (spring wheat; Rate 125 g/ha, 0 to 100 scale): 10; Plant response rating, Spring Wheat (spring wheat; [13]): 20; Plant response rating, Wild mustard (wild mustard [6]; Rate 62 g/ha, 0 to 100 scale): 5; Plant response rating, Wild mustard (wild mustard [6]; Rate 125 g/ha, 0 to 100 scale): 10; Plant response rating, Wild mustard (wild mustard [6]; [13]): 80; Plant response rating, Wild oat (wild oat; Rate 62 g/ha, 0 to 100 scale): 0; Plant response rating, Wild oat (wild oat; Rate 125 g/ha, 0 to 100 scale): 5; Plant response rating, Wild oat (wild oat; [13]): 20; Plant response rating, Blk nightshade (black nightshade; [14]): 50; Plant response rating, Blk nightshade (black nightshade; [15]): 85; Plant response rating, Blk nightshade (black nightshade; Rate 250 g/ha, 0 to 100 scale): 90; Plant response rating, Deadnettle (deadnettle; [14]): 10; Plant response rating, Deadnettle (deadnettle; [15]): 10; Plant response rating, Deadnettle (deadnettle; Rate 250 g/ha, 0 to 100 scale): 40; Plant response rating, Downy brome (downy brome; [14]): 30; Plant response rating, Downy brome (downy brome; [15]): 30; Plant response rating, Downy brome (downy brome; Rate 250 g/ha, 0 to 100 scale): 70; Plant response rating, Field violet (field violet [7]; [14]): 15; Plant response rating, Field violet (field violet [7]; [15]): 0; Plant response rating, Field violet (field violet [7]; Rate 250 g/ha, 0 to 100 scale): 20; Plant response rating, Galium (galium [8]; [14]): 95; Plant response rating, Galium (galium [8]; [15]): 50; Plant response rating, Galium (galium [8]; Rate 250 g/ha, 0 to 100 scale): 95; Plant response rating, Jointed goatgra (jointed goatgrass; [14]): 30; Plant response rating, Jointed goatgra (jointed goatgrass; [15]): 40; Plant response rating, Jointed goatgra (jointed goatgrass; Rate 250 g/ha, 0 to 100 scale): 60; Plant response rating, Kochia (kochia [9]; [14]): 50; Plant response rating, Kochia (kochia [9]; [15]): 50; Plant response rating, Kochia (kochia [9]; Rate 250 g/ha, 0 to 100 scale): 40; Plant response rating, Lambsquarters (lambsquarters; [14]): 80; Plant response rating, Lambsquarters (lambsquarters; [15]): 100; Plant response rating, Lambsquarters (lambsquarters; Rate 250 g/ha, 0 to 100 scale): 90; Plant response rating, LS canarygrass (littleseed canarygrass; [14]): 60; Plant response rating, LS canarygrass (littleseed canarygrass; [15]): 50; Plant response rating, LS canarygrass (littleseed canarygrass; Rate 250 g/ha, 0 to 100 scale): 70; Plant response rating, Rape (rape [10]; [14]): 40; Plant response rating, Rape (rape [10]; [15]): 60; Plant response rating, Rape (rape [10]; Rate 250 g/ha, 0 to 100 scale): 50; Plant response rating, Redroot pigweed (redroot pigweed; [14]): 70; Plant response rating, Redroot pigweed (redroot pigweed; [15]): 90; Plant response rating, Redroot pigweed (redroot pigweed; Rate 250 g/ha, 0 to 100 scale): 90; Plant response rating, Russian thistle (Russian thistle; [14]): 0; Plant response rating, Russian thistle (Russian thistle; [15]): 0; Plant response rating, Russian thistle (Russian thistle; Rate 250 g/ha, 0 to 100 scale): 15; Plant response rating, Spring Barley (spring barley [11]; [14]): 10; Plant response rating, Spring Barley (spring barley [11]; [15]): 10; Plant response rating, Spring Barley (spring barley [11]; Rate 250 g/ha, 0 to 100 scale): 5; Plant response rating, Sunflower (sunflower; [14]): 0; Plant response rating, Sunflower (sunflower; [15]): 0; Plant response rating, Sunflower (sunflower; Rate 250 g/ha, 0 to 100 scale): 10; Plant response rating, Wild mustard (wild mustard [12]; [14]): 50; Plant response rating, Wild mustard (wild mustard [12]; [15]): 90; Plant response rating, Wild mustard (wild mustard [12]; Rate 250 g/ha, 0 to 100 scale): 65; Plant response rating, Windgrass (windgrass; [14]): 100; Plant response rating, Windgrass (windgrass; [15]): 100
